Source: paper PMC4621912, “Anticancer activity of MPT0G157, a derivative of indolylbenzenesulfonamide, inhibits tumor growth and angiogenesis” (Oncotarget, 2015)
Where two headings read alike, the source gives them in different places. Blank lines part the entries; values can stand above or below the compound they belong to.

Experiments:
[1] = tested on: HIF-1α and VEGF expression in HCT116 cells; experiment: CoCl2-induced HIF-1α / VEGF expression in HCT116 cells (western blot, RT-PCR); assay type: cell-based, human; conditions: 0.1 μM 24 h, then CoCl2 300 μM 4 h
Procedure: D. Cells were incubated as explained in (C), the levels of hypoxia-inducible factor-1α (HIF-1α), vascular endothelial growth factor (VEGF) mRNA were measured by RT-PCR.
Total RNA was isolated from cells using TRIzol reagent (Invitrogen). Single-strand cDNA for a polymerase chain reaction (PCR) template was synthesized from 5 μg of total RNA using random primers and Moloney murine leukemia virus reverse transcriptase (Promega). […] Equal amounts (1 μg) of each reverse-transcription product were PCR-amplified using Taq polymerase and 35 cycles of 1 min at 95°C, 1 min at 58°C, and 1 min at 72°C. The amplified cDNA was run on 1% agarose gels and visualized under UV light following staining with SYBR Safe DNA gel stain (Invitrogen).
Cells (1 × 10^6) were incubated for 10 min at 4°C in lysis buffer (20 mM HEPES, pH 7.4, 2 mM EGTA, 50 mM β-glycerophosphate, 0.1% Triton X-100, 10% glycerol, 1 mM DTT, 1 μg/mL of leupeptin, 5 μg/mL of aprotinin, 1 mM phenylmethylsulfonyl fluoride, and 1 mM sodium orthovanadate), were scraped off, incubated on ice for an additional10 min, and centrifuged at 17, 000 g for 30 min at 4°C. Protein samples (80 μg) were then electrophoresed on sodium dodecyl sulfate polyacrylamide gels (SDS-PAGE) and transferred onto a nitrocellulose membrane, which was then blocked by incubation for 30 min at room temperature with 5% fat-free milk in phosphate-buffered saline (PBS). Immunoblotting was performed by overnight incubation at 4°C with primary antibodies in PBS, followed by incubation for 1 h at room temperature with HRP-conjugated secondary antibodies. Bound antibodies were measured using ECL reagent (Advansta Corp., Menlo Park, CA, USA) and exposure to photographic film.

[2] = molecular target: T1, recombinant HDAC4 (Homo sapiens, UniProt P56524); experiment: Inhibition of recombinant HDAC enzyme activity (fluorogenic kit), HDAC4; assay type: biochemical; conditions: mean ± SEM, read-out: IC50 HDAC4 (Class IIa)
T1 construct: purchased BPS Bioscience Corp
T1 sequence (P56524 627-1084 limits assumed): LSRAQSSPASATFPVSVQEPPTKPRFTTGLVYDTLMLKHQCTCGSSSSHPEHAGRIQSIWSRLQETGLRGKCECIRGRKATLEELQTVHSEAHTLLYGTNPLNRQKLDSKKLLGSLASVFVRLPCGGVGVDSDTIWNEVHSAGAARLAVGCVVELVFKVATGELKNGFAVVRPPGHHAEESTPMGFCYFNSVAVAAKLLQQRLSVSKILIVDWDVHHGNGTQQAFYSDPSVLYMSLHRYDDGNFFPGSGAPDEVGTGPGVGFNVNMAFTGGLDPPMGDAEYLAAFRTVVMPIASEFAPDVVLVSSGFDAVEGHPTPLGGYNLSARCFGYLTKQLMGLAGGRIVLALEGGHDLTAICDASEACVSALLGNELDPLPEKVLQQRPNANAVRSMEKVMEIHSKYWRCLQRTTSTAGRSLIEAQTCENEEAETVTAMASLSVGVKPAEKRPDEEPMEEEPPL
Source text: (§1) Fluorogenic HDAC assay kits (BPS Bioscience Corp., San Diego, CA, USA) were used to assess the ability of HDAC inhibitors to inhibit deacetylation of lysine residues on the substrate by recombinant HDAC1, 2, 3, 4, 6, or 8 according to the manufacturer's instructions.

[3] = tested on: HCT116 xenograft tumor; experiment: HCT116 xenograft model; assay type: in vivo, nude mice; conditions: 15 mg/kg
Procedure: Figure 5 The effect of MPT0G157 in HCT116 xenograft model Mice bearing established HCT116 tumors (~100 mm^3) were divided into three group (n = 5) and dosed as Materials and Methods. The tumor volumes A. and body weight B. of mice were measured. Results are mean ± SEM. **p < 0.01 versus control group.
HCT116 cells were implanted subcutaneously into four week old male nude mice. When the tumors reached the average volume of 100 mm^3, the mice were randomly divided into three groups (n = 5) and then were treated with the vehicle (1% carboxymethyl cellulose + 0.5% Tween 80, 0.2 mL/mouse), MPT0G157 (15 mg/kg) by intravenously injection five on two off in the first week and intraperitoneal injection in the other weeks. The length (L) and width (W) of the tumor were measured by caliper every 3 to 4 days, and the tumor volume was calculated as L × W^2/2.

[4] = molecular target: T2, recombinant HDAC6 (Homo sapiens, UniProt Q9UBN7); experiment: Inhibition of recombinant HDAC enzyme activity (fluorogenic kit), HDAC6; assay type: biochemical; conditions: mean ± SEM, read-out: IC50 HDAC6 (Class IIb)
T2 construct: purchased BPS Bioscience Corp
T2 sequence (Q9UBN7 1-1215): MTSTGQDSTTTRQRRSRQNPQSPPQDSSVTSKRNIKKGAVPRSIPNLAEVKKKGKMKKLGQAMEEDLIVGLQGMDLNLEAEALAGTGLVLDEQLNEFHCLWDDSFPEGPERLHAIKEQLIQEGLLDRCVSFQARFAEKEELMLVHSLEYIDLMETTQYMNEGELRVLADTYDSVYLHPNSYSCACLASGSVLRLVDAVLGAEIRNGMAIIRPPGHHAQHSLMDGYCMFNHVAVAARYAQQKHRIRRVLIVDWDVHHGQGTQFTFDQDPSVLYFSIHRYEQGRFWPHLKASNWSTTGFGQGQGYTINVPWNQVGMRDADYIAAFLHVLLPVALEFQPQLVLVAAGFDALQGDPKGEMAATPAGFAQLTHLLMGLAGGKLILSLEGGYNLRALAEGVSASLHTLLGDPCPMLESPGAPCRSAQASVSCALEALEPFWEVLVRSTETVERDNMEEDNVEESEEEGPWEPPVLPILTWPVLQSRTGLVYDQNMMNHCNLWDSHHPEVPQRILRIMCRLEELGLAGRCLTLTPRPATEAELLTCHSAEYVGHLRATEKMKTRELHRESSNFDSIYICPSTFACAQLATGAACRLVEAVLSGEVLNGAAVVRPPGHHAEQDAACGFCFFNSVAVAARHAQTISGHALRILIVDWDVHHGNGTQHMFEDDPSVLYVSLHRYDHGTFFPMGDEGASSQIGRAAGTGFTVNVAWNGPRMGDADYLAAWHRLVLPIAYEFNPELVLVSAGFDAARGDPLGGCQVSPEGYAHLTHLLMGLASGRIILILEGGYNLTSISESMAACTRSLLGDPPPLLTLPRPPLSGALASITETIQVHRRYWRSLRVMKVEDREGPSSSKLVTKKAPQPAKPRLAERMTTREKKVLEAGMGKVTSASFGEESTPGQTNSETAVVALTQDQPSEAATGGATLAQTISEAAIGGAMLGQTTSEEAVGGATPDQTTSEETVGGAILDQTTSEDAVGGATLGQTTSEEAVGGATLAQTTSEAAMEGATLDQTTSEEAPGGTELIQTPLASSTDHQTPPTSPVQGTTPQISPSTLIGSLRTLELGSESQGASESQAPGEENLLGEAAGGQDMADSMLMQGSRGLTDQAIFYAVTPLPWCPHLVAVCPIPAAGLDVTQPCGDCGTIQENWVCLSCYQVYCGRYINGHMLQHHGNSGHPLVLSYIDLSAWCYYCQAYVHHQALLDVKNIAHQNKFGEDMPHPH
Source text: as §1

[5] = molecular target: T3, recombinant HDAC3 (Homo sapiens, UniProt O15379); experiment: Inhibition of recombinant HDAC enzyme activity (fluorogenic kit), HDAC3; assay type: biochemical; conditions: mean ± SEM, read-out: IC50 HDAC3 (Class I)
T3 construct: purchased BPS Bioscience Corp
T3 sequence (O15379 whole entry): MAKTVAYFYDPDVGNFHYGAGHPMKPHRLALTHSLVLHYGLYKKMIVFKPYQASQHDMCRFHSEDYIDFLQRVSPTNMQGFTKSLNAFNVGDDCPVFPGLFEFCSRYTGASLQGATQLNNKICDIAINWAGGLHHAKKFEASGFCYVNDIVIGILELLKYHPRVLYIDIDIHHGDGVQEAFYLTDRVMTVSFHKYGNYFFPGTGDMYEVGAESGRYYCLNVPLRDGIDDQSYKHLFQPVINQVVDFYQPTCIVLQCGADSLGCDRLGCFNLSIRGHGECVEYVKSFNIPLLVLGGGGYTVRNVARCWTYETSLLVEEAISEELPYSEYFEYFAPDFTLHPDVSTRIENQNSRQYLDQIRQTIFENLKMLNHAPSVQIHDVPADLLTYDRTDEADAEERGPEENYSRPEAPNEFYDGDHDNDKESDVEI
T3 sequence (Q9Y618 395-489 partner limits assumed): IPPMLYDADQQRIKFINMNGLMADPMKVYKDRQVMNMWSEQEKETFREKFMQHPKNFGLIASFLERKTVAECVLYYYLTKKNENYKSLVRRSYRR
Source text: as §1

[6] = tested on: total HDAC activity in HCT116 cells; experiment: Total HDAC enzymatic activity assay in treated HCT116 cells; assay type: cell-based; conditions: Homo sapiens, read-out: HDAC inhibitory IC50 in HCT116 cells (total HDAC enzyme activity)
Procedure: B. HCT116 cells (1 × 10^6) treated as explained in (A), whole-cell extracts were subjected to western blotting for the indicated proteins. Quantitative analysis of acetyl-histone H3 C. and acetyl-α-tubulin D. expression in western blot were determined by ImageQuant (Molecular Dynamics, USA). E. Immunohistochemical analysis of the HDAC1, 2 and 6 expression of a tissue microarray containing normal colon tissues and tumor tissue derived from patients with colon adenocarcinoma. Scale bars are indicated. […] Total cell lysates were collected and the total HDAC enzyme activity was analyzed using HDAC activity fluorometric assay kit (Cat No. K330–100; BioVision, Milpitax, CA, USA).

[7] = tested on: A549 cells; experiment: SRB cell proliferation assay, A549; assay type: cell-based; conditions: Homo sapiens, read-out: GI50, A549
Procedure: (§2) Results are shown as mean ± SEM from three independent experiments. […] Cells (1 × 10^4) in 100 μL of medium in 96-well plates were incubated with vehicle (control) or vehicle with test compound for 12 or 24 h. After various treatments, 1 mg/mL of MTT was added and the plates were incubated at 37°C for an additional 2 h, then the cells were pelleted and lysed in 100 μL of dimethyl sulfoxide, and the absorbance at 550 nm was measured on a microplate reader. Cell proliferation was measured by the SRB assay. Cells (1 × 10^4) were incubated for 48 h with the indicated concentrations of test compounds, then were fixed with 10% trichloroacetic acid, stained for 30 min with SRB (0.4% in 1% acetic acid), and washed repeatedly with 1% acetic acid. Protein-bound dye was dissolved in 10 mM Tris base solution and the optical density at 510 nm measured.

[8] = tested on: inflammatory factors NO, TNF-α, IL-6, PGE2; parameters: method as in PMID 25113875; conditions: cited from earlier work
[9] = molecular target: T4, recombinant HDAC1 (Homo sapiens, UniProt Q13547); experiment: Inhibition of recombinant HDAC enzyme activity (fluorogenic kit), HDAC1; assay type: biochemical; conditions: mean ± SEM, read-out: IC50 HDAC1 (Class I)
T4 construct: purchased BPS Bioscience Corp
T4 sequence (Q13547 whole entry): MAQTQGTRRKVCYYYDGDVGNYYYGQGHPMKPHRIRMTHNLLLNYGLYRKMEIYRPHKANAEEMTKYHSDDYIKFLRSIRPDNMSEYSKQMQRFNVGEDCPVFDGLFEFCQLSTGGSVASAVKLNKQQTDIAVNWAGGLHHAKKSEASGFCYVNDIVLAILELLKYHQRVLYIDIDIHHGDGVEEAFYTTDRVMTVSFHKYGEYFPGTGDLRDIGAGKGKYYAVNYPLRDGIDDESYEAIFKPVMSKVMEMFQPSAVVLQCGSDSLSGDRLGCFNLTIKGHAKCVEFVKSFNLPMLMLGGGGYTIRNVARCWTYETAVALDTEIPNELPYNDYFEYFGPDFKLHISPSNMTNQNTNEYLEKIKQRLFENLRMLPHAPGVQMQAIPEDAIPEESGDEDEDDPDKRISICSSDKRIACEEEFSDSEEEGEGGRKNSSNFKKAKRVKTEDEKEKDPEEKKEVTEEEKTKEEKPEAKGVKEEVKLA
Source text: as §1

[10] = molecular target: T5, recombinant HDAC2 (Homo sapiens, UniProt Q92769); experiment: Inhibition of recombinant HDAC enzyme activity (fluorogenic kit), HDAC2; assay type: biochemical; conditions: mean ± SEM, read-out: IC50 HDAC2 (Class I)
T5 construct: purchased BPS Bioscience Corp
T5 sequence (Q92769 whole entry): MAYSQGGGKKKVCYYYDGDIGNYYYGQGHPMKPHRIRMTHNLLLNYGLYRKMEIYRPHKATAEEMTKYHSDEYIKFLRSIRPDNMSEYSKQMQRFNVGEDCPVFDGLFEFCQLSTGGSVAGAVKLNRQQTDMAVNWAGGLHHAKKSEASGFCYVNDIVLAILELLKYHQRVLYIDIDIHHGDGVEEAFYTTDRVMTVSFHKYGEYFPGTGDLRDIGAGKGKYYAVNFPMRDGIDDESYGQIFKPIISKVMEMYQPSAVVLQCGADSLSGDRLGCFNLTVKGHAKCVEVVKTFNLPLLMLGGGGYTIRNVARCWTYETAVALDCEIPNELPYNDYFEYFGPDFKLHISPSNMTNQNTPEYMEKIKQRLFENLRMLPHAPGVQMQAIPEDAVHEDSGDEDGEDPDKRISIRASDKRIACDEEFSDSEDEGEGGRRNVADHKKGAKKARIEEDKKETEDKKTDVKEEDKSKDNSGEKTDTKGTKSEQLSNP
Source text: as §1

[11] = tested on: HDAC (HeLa nuclear extract); parameters: method as in PMID 25113875; conditions: cited from earlier work
[12] = tested on: AsPC-1 cells; experiment: SRB cell proliferation assay, AsPC-1; assay type: cell-based; conditions: Homo sapiens, read-out: GI50, AsPC-1
Procedure: as §2

[13] = molecular target: T6, recombinant HDAC8 (Homo sapiens, UniProt Q9BY41); experiment: Inhibition of recombinant HDAC enzyme activity (fluorogenic kit), HDAC8; assay type: biochemical; conditions: mean ± SEM, read-out: IC50 HDAC8 (Class I)
T6 construct: purchased BPS Bioscience Corp
T6 sequence (Q9BY41 1-377): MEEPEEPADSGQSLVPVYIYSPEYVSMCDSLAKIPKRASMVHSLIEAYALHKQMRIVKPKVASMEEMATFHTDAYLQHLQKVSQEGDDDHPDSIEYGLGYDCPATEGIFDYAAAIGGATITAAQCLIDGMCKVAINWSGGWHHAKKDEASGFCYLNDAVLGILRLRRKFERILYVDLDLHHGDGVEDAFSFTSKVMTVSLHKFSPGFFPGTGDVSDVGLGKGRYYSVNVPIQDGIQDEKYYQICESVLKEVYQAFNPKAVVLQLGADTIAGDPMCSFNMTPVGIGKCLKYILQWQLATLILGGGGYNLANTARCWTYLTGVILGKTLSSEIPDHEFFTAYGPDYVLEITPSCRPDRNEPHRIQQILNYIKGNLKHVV
Source text: as §1

[14] = SRB cell proliferation assay, normal bone marrow stromal cells HS-5; assay type: cell-based; conditions: HS-5 normal bone marrow stromal cells, human normal bone marrow stromal cells
Procedure: as §2

[15] = tested on: matrigel-induced angiogenesis; experiment: In vivo matrigel plug angiogenesis assay; parameters: species or system nude mice; conditions: 0.1 and 1 μM in matrigel, seven days, versus control group
Source text: A. After seven days, the animals were sacrificed and the plugs were excised from the mice and photographed. Scale bar represents 0.5 cm. B. Sections of H&E, Masson's trichrome stained and CD31 stained matrigel plugs were examined by light microscopy under 200 × magnification. Scale bar = 100 μm. C. Quantification of the hemoglobin contents of matrigel plugs by spectrophotometer measured at 540 nm. Data represent the mean ± SEM. *p < 0.05 and ***p < 0.001 versus control group.
Six-week-old female nude mice were divided into four groups with three animals in each group. Mice were injected subcutaneously into the abdomens with matrigel (BD Bioscience) mixed with PBS or angiogenic factors (40 ng/ml) with/without MPT0G157 (0.1 μM and 1 μM). After seven days, the animals were sacrificed and the plugs were carefully dissected and photographed, the plugs were performed hematoxylin and eosin (H&E), Masson's trichrome stain and CD31 staining. To quantify the blood vessel formation, hemoglobin content was analyzed by Drabkin's reagent kit (Sigma Chemical, St. Louis, MO).

[16] = tested on: HCT116 cells; experiment: SRB cell proliferation assay, HCT116; assay type: cell-based; conditions: Homo sapiens, read-out: GI50, HCT116
Procedure: as §2

[17] = tested on: MDA-MB-231 cells; experiment: SRB cell proliferation assay, MDA-MB-231; assay type: cell-based; conditions: Homo sapiens, read-out: GI50, MDA-MB-231
Procedure: as §2

IC50 [2]: > 1000 nM
IC50 [4]: 14.3 ± 0.77 nM
IC50 [5]: 9.36 ± 0.7 nM
IC50 ([6]; HCT-116, HCT116 cells treated 24 h): 470 ± 140 nM
GI50 ([7]; A549, SRB assay, 48 h): 307 ± 36 nM
IC50 [9]: 7.69 ± 1.84 nM
IC50 [10]: 5.13 ± 0.67 nM
GI50 ([12]; ASPC1, SRB assay, 48 h): 103 ± 17 nM
IC50 [13]: > 1000 nM
GI50 ([16]; HCT-116, SRB assay, 48 h): 29 ± 2 nM
GI50 ([17]; MDA-MB-231, SRB assay, 48 h): 47 ± 7 nM
Structure (SMILES): Cc1[nH]c2ccccc2c1CCNS(=O)(=O)c1ccc(C=CC(=O)NO)cc1 [MPT0G157, N-hydroxy-3-{4-[2-(2-methyl-1H-indol-3-yl)-ethylsulfamoyl]-phenyl}-acrylamide]
CoCl2-induced HIF-1α protein expression ([1]; HCT116): markedly inhibited
CoCl2-induced VEGF mRNA expression ([1]; HCT116, RT-PCR): markedly inhibited
HIF-1α mRNA levels ([1]; HCT116, RT-PCR): did not reduce
body weight loss during treatment ([3]; HCT116 xenograft mice): no significant differences in weight loss
percent of tumor growth inhibition (TGI) ([3]; i.v. first week then i.p., nude mice with HCT116 tumors): 50.7%
suppression of inflammatory factor activities, fold compared with PXD101 [8]: 3.0–25.1 fold
IC50 ([11]; HeLa nuclear extract as the HDAC source, read-out: IC50 for inhibition of HDAC activity): 2.8 ± 0.2 nM
HDAC inhibition, fold compared with PXD101 ([11]; compared with PXD101): 9.4 fold
GI50 at 48 h [14]: > 100000 nM
angiogenic response (hemoglobin content of matrigel plugs) [15]: significantly suppressed the angiogenic response

Structure (SMILES): O=C(/C=C/c1cccc(S(=O)(=O)Nc2ccccc2)c1)NO [PXD101, reference compound]
IC50 [2]: 161 ± 2.36 nM
IC50 [4]: 80.3 ± 8.69 nM
IC50 ([6]; HCT-116, 24 h): 10300 ± 2250 nM
GI50 ([7]; A549, 48 h): > 1000 nM
GI50 ([12]; ASPC1, 48 h): > 1000 nM
GI50 ([16]; HCT-116, 48 h): 90 ± 12 nM
GI50 ([17]; MDA-MB-231, 48 h): 241 ± 2 nM

GI50 ([7]; A549, 48 h): > 1000 nM
GI50 ([12]; ASPC1, 48 h): > 1000 nM
GI50 ([16]; HCT-116, 48 h): 411 ± 37 nM
GI50 ([17]; MDA-MB-231, 48 h): 745 ± 43 nM
Structure (SMILES): O=C(CCCCCCC(=O)Nc1ccccc1)NO [SAHA]
